According to patent US7488758B2 (Teva Pharmaceutical Fine Chemicals, S.r.l., priority 2004, dated 2009):
Read-outs that look alike come from different tables or passages of the source.

Details: for water content: after exposure at about 100% relative humidity for one week, hydrochloride; for water absorption, outcome in words: one-week exposure at 100% relative humidity; for LOD (%) (water content by TGA) / Polymorph by XRD: one week exposure
Protocol: After each exposure the water content was determined by Thermal Gravimetric Analysis (TGA) and reported as loss on drying (LOD) as a weight percentage and the crystal structure was determined by X-ray Diffraction (XRD).
The X-Ray diffraction (XRD) analysis was conducted using an ARL X-Ray powder diffractometer (model X'TRA-030) equipped with a Peltier detector, round standard aluminum sample holder with round zero background, and quartz plate. The scanning parameters were from a range of about 2-40 degree two θ (±0.2 degrees) and a continuous scan at a rate of about 3 degrees/min.
Thermal Gravimetric Analysis (TGA) was conducted using a Mettler Toledo TGA/SDTA 851^e using a sample weight of about 7-15 mg, a heating rate of about 10° C. min. under a N2 stream at a N2 flow rate of about 50 ml/min. The samples were scanned at a range between about 30° C. to about 250° C.

Row | water content | LOD (%) (water content by TGA) (RH 0%) | LOD (%) (water content by TGA) (RH 20%) | LOD (%) (water content by TGA) (RH 40%) | LOD (%) (water content by TGA) (RH 60%) | LOD (%) (water content by TGA) (RH 80%) | Polymorph by XRD (RH 80%) | LOD (%) (water content by TGA) (RH 100%) | Polymorph by XRD (RH 100%) | Structure (SMILES) | water absorption, outcome in words
1 | about 34% |  |  |  |  |  |  |  |  | CC(C)(C)NC[C@H](O)c1ccc(O)c(CO)c1.Cl [Polymorph A, (R)-α^1-[[(1,1-dimethylethyl)amino]methyl]-4-hydroxy-1,3-benzenedimethanol hydrochloride, reference compound] | absorbed sufficient water to dissolve the polymorph
2 | about 36% | 0.21 | 0.25 | 0.25 | 0.30 | 0.48 | A >> B | 36.0 | only Polymorph A was detected | CC(C)(C)NC[C@H](O)c1ccc(O)c(CO)c1.Cl [Polymorph B, (R)-α^1-[[(1,1-dimethylethyl)amino]methyl]-4-hydroxy-1,3-benzenedimethanol hydrochloride] | absorbed sufficient water to dissolve the polymorph
